Where a name gives a salt, the structure may show the parent alone. Each block holds one molecule with its values, some of them ahead of it.
What was measured:
Assay type in all cases: cell-based
H929 cells = experiment: Cell viability CTG assay, H929; design: key to Geomean absolute IC50 by molecule, 72 H: Inactive represents IC50 > 50 μM; C represents 50 μM ≥ IC50 > 5 μM; conditions: H929, 72 h, 0.001-50 μM; for IC50: Homo sapiens, NCI-H929, numeric values, read-out: Geomean absolute IC50 by molecule, 72 H
Protocol: (§1) The effect of various compounds of the invention and various reference compounds on cell viability in various cell lines was investigated, using the Cell Viability—CTG Assay Protocol below. Hep3B, Kelly, H929, KG-1 and SNU-398 cells were maintained in respective cell medium (see Table 8, below). The cells were seeded on the 96-well or 384-white plates, and the compounds to be tested were added at the desired concentration range. Compounds are diluted in DMSO, and the DMSO concentration is kept constant at 0.25% v/v across the assay plate. After 72 h incubation (37° C., 5% CO2), CellTiter-Glo® Reagent (Promega/G7570) was added to the wells. Plates are shaken for 4 minutes and incubated for 8 minutes in the dark prior to reading luminescence (LU) by using the CLARIOstar Multimode Plate Reader. The signal is proportional to the amount of ATP, which is directly proportional to the number of cells present in the culture.
(§2) Luminescence (RLU) values were normalized to DMSO control. Dose response is assessed by non-linear regression and IC50 calculation with the average of technical duplicate of percentage inhibition. IC50 values are reported as absolute IC50 values, being the concentration of test compound at the intersection of the concentration-response curves with T/C=50%. For calculation of mean IC50 values the geometric mean is used.

Ikaros (IKZF1) = molecular target: T1, Ikaros (IKZF1) (Homo sapiens, UniProt Q13422+Q96SW2); experiment: Ikaros degradation assay, H929 cell line; conditions: H929 cells, 24 h; for % of IKZF1 protein reduction: numeric values; for inhibition at 10 µM / inhibition at 20 µM: NCI-H929, read-out: % of IKZF1 protein reduction
T1 construct: Ikaros degradation in the H929 cell line was investigated; endogenous in cells; host or cells: H929
T1 sequence (Q13422 whole entry): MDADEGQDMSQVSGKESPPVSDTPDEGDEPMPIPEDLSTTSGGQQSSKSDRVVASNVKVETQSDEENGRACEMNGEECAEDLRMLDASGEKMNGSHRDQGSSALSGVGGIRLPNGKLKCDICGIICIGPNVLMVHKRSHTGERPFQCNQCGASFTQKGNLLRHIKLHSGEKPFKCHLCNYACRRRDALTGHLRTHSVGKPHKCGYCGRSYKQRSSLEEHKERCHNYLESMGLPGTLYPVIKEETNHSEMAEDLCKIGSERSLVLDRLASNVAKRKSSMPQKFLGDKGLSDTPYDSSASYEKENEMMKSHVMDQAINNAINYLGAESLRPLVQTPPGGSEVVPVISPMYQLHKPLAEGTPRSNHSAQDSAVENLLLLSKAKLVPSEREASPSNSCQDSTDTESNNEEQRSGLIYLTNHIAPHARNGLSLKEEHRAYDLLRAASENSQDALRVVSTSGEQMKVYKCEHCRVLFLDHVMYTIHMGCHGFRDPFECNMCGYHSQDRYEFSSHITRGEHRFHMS
T1 sequence (Q96SW2 whole entry): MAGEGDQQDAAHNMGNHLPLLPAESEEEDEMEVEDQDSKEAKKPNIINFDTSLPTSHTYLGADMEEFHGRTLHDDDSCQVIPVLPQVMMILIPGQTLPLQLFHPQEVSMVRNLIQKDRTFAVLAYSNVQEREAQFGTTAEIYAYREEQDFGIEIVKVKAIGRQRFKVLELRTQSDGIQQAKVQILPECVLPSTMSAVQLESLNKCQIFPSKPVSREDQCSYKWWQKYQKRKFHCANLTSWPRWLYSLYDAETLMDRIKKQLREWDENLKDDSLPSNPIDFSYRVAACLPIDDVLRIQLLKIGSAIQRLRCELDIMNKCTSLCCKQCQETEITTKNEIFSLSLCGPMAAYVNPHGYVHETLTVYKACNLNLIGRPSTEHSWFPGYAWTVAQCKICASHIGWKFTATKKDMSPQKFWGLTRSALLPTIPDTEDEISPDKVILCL
T1 sequence (Q16531 whole entry partner): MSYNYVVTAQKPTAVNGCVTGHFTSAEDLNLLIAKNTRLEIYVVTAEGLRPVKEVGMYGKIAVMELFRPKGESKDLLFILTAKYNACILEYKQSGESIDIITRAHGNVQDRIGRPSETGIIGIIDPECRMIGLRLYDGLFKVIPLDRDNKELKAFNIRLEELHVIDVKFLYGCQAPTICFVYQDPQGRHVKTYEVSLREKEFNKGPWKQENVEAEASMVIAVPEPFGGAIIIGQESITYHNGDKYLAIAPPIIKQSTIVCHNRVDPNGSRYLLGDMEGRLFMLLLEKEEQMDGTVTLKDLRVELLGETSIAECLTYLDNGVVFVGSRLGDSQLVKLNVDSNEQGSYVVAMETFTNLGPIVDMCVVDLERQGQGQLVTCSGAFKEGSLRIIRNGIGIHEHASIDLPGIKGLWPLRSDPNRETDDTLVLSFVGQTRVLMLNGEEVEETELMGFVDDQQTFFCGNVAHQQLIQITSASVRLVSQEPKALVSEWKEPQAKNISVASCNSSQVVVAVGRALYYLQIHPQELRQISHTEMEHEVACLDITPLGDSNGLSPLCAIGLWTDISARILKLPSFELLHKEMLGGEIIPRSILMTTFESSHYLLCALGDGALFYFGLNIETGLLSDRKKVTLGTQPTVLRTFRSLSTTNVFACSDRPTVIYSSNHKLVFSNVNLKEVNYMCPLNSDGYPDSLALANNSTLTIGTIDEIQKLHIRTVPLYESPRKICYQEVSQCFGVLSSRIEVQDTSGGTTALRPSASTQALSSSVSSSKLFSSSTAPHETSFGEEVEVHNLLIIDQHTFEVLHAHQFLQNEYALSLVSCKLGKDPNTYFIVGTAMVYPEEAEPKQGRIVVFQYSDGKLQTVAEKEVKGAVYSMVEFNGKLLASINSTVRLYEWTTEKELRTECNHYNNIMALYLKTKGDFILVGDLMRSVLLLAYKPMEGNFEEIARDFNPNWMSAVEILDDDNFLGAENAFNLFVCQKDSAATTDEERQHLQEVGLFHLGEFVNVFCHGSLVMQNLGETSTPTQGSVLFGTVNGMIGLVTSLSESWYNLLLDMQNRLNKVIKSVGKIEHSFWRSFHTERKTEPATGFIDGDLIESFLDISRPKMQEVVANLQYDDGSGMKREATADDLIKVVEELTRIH
Protocol: Cells were seeded on 6- or 12-well plates, and the compounds to be tested were added at the desired concentration range. […] After 24 h incubation (37° C., 5% CO2), cells were harvested, washed and cell lysates were prepared using RIPA lysis buffer. The amount of protein was determined via BCA assay, and the appropriate quantity was then loaded on the precast gel for the protein separation. After primary and secondary Ab staining, the membranes were washed and signals developed. The densitometry analysis was implemented to obtain the numeric values used later in the protein level evaluation process.

Hep3B cells = experiment: Cell viability CTG assay, Hep3B; conditions: Homo sapiens, 72 h, 0.001-50 μM, read-out: Hep3B Geomean absolute IC50 by molecule, 72 H
Protocol: as §1, §2

GSPT1 = molecular target: T2, GSPT1 (Homo sapiens, UniProt P15170+Q96SW2); experiment: GSPT1 degradation assay, Hep3B cell line; conditions: HEP3B cells, 24 h, read-out: % of GSPT1 protein reduction
T2 construct: GSPT1 degradation in the Hep3B cell line was investigated; endogenous in cells; host or cells: Hep3B
T2 sequence (P15170 whole entry): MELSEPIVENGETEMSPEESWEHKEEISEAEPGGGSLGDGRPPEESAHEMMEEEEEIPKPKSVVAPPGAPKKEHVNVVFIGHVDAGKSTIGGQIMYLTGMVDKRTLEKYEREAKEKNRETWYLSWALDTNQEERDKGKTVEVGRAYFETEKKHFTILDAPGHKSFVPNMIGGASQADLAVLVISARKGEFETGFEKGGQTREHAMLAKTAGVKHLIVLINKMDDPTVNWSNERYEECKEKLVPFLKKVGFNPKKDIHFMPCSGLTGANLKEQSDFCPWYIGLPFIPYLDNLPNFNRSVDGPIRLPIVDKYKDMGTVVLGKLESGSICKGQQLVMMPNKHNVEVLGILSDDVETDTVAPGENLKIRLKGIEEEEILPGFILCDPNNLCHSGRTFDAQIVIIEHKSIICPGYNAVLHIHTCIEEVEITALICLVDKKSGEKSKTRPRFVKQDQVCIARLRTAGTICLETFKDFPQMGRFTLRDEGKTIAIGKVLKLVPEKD
T2 sequence (Q96SW2 whole entry): as the sequence (Q96SW2 whole entry) above
T2 sequence (Q16531 whole entry partner): as the sequence (Q16531 whole entry partner) above
Protocol: Hep3B cells were maintained in EMEM medium, supplemented with penicillin/streptomycin and 10% Fetal Bovine Serum (FBS). Cells were seeded on 6- or 12-well plates, and the compounds to be tested were added at the desired concentration range. Final DMSO concentration was 0.25%. After 24 h incubation (37° C., 5% CO2), cells were harvested, washed and cell lysates were prepared using RIPA lysis buffer. The amount of protein was determined via BCA assay, and the appropriate quantity was then loaded on the precast gel for the protein separation. After primary and secondary Ab staining, the membranes were washed and signals developed. The densitometry analysis was implemented to obtain the numeric values used later in the protein level evaluation process. Densitometry values were normalized to the loading control and calculated as [%] of the DMSO control.

Kelly cells = experiment: Cell viability CTG assay, Kelly; conditions: 72 h, 0.001-50 μM, read-out: Kelly Geomean absolute IC50 by molecule, 72 H
Protocol: as §1, §2

KG-1 cells = experiment: Cell viability CTG assay, KG-1; conditions: Homo sapiens; KG-1, 72 h, 0.001-50 μM; read-out: KG-1 Geomean absolute IC50 by molecule, 72 H
Protocol: as §1, §2

SMILES: Cc1c(CN)ccc2c1CN(C1CCC(=O)NC1=O)C2=O (stereo not drawn) [Compound 6, 3-[5-(aminomethyl)-4-methyl-1-oxo-2,3-dihydro-1H-isoindol-2-yl]piperidine-2,6-dione]
IC50 (Hep3B cells): ≤ 100 nM | Geomean absolute IC50 by molecule, 72 H (H929 cells): Inactive

SMILES: NCc1cc(F)c2c(c1)CN(C1CCC(=O)NC1=O)C2=O (stereo not drawn) [Compound 7, 3-[5-(aminomethyl)-7-fluoro-1-oxo-2,3-dihydro-1H-isoindol-2-yl]piperidine-2,6-dione]
inhibition at 10 µM (GSPT1): 50 to 79% | inhibition at 10 µM (Ikaros (IKZF1); 10 uM): 0 to 24%

SMILES: C[C@H](N)c1ccc2c(c1)CN(C1CCC(=O)NC1=O)C2=O (stereo partly drawn) [Compound 8, 3-{5-[(1S)-1-aminoethyl]-1-oxo-2,3-dihydro-1H-isoindol-2-yl}piperidine-2,6-dione]
inhibition at 20 µM (Ikaros (IKZF1); 20 uM): 0 to 24%

SMILES: C[C@@H](NC(=O)OC(C)(C)C)c1ccc2c(c1)CN(C1CCC(=O)NC1=O)C2=O (stereo partly drawn) [Compound 11, tert-butyl N-[(1R)-1-[2-(2,6-dioxopiperidin-3-yl)-1-oxo-2,3-dihydro-1H-isoindol-5-yl]ethyl]carbamate]
inhibition at 20 µM (Ikaros (IKZF1); 20 uM): 0 to 24%

SMILES: CN(C)Cc1ccc2c(c1)CN(C1CCC(=O)NC1=O)C2=O (stereo not drawn) [Compound 16, 3-(5-((dimethylamino)methyl)-1-oxoisoindolin-2-yl)piperidine-2,6-dione]
inhibition at 10 µM (Ikaros (IKZF1); 10 uM): 0 to 24%

SMILES: O=C1CCC(N2Cc3cc(CNC(=O)c4ccccc4CO)ccc3C2=O)C(=O)N1 (stereo not drawn) [Compound 20, N-{[2-(2,6-dioxopiperidin-3-yl)-1-oxo-2,3-dihydro-1H-isoindol-5-yl]methyl}-2-(hydroxymethyl)benzamide]
inhibition at 10 µM (GSPT1): 50 to 79%

SMILES: CC(C)(C)OC(=O)NCC(=O)NCc1ccc2c(c1)CN(C1CCC(=O)NC1=O)C2=O (stereo not drawn) [Compound 26, tert-butyl (2-(((2-(2,6-dioxopiperidin-3-yl)-1-oxoisoindolin-5-yl)methyl)amino)-2-oxoethyl)carbamate]
IC50 (Hep3B cells): ≤ 100 nM | Geomean absolute IC50 by molecule, 72 H (H929 cells): Inactive | inhibition at 20 µM (Ikaros (IKZF1); 20 uM): 0 to 24%

SMILES: CC(C)(C)OC(=O)N[C@@H](Cc1cnc[nH]1)C(=O)NCc1ccc2c(c1)CN([C@H]1CCC(=O)NC1=O)C2=O [Compound 30, tert-butyl ((S)-1-(((2-((S)-2,6-dioxopiperidin-3-yl)-1-oxoisoindolin-5-yl)methyl)amino)-3-(1H-imidazol-4-yl)-1-oxopropan-2-yl)carbamate]
inhibition at 20 µM (Ikaros (IKZF1); 20 uM): 0 to 24%

SMILES: O=C(CCc1c[nH]c2ccccc12)NCc1ccc2c(c1)CN(C1CCC(=O)NC1=O)C2=O (stereo not drawn) [Compound 36]
IC50 (Hep3B cells): ≤ 100 nM | IC50 (Kelly cells): ≤ 100 nM | IC50 (KG-1 cells): ≤ 100 nM

SMILES: N=C(N)NCCCC(N)C(=O)NCc1ccc2c(c1)CN(C1CCC(=O)NC1=O)C2=O (stereo not drawn) [Compound 38, 2-amino-N-((2-(2,6-dioxopiperidin-3-yl)-1-oxoisoindolin-5-yl)methyl)-5-guanidinopentanamide]
IC50 (Hep3B cells): 100 to 1000 nM | Geomean absolute IC50 by molecule, 72 H (H929 cells): Inactive

SMILES: O=C(CCc1ccc(Cl)cc1)NCc1ccc2c(c1)CN(C1CCC(=O)NC1=O)C2=O (stereo not drawn) [Compound 42]
IC50 (Hep3B cells): ≤ 100 nM | IC50 (Kelly cells): ≤ 100 nM | IC50 (KG-1 cells): ≤ 100 nM

SMILES: O=C1CCC(N2Cc3cc(CNC(=O)[C@@H]4CCCN4)ccc3C2=O)C(=O)N1 (stereo partly drawn) [Compound 43, (2S)—N-((2-(2,6-dioxopiperidin-3-yl)-1-oxoisoindolin-5-yl)methyl)pyrrolidine-2-carboxamide hydrochloride]
IC50 (Hep3B cells): 100 to 1000 nM | Geomean absolute IC50 by molecule, 72 H (H929 cells): Inactive | inhibition at 20 µM (Ikaros (IKZF1); 20 uM): 0 to 24% | IC50 (KG-1 cells): 1000 to 5000 nM

SMILES: O=C1CCC(N2Cc3cc(C(=O)O)ccc3C2=O)C(=O)N1 (stereo not drawn) [Compound 53]
inhibition at 1 µM (GSPT1; 1 uM): 50 to 79% | inhibition at 10 µM (GSPT1): 80 to 100%

Other lines, results leading:

IC50 (H929 cells): 72 nM
SMILES: Cc1nc2cccc(N)c2c(=O)n1C1CCC(=O)NC1=O (stereo not drawn) [CC-122, reference compound]

IC50 (H929 cells): 4 nM
SMILES: O=C1CC[C@@H](N2Cc3c(OCc4ccc(CN5CCOCC5)cc4)cccc3C2=O)C(=O)N1 [CC-220, reference compound]

% of IKZF1 protein reduction (Ikaros (IKZF1); 10 uM): >99% | % of IKZF1 protein reduction (Ikaros (IKZF1); 20 uM): >99%
SMILES: Cc1ccc(NC(=O)NCc2ccc3c(c2)CN(C2CCC(=O)NC2=O)C3=O)cc1Cl (stereo not drawn) [CC-885, reference compound]

inhibition at 10 µM (Ikaros (IKZF1); 10 uM): 0 to 24%
SMILES: Cc1cc2c(cc1CN)CN(C1CCC(=O)NC1=O)C2=O (stereo not drawn) [Compound 4, 3-[5-(aminomethyl)-6-methyl-1-oxo-2,3-dihydro-1H-isoindol-2-yl]piperidine-2,6-dione]

IC50 (Hep3B cells): 100 to 1000 nM | inhibition at 10 µM (GSPT1): 80 to 100% | Geomean absolute IC50 by molecule, 72 H (H929 cells): Inactive | inhibition at 10 µM (Ikaros (IKZF1); 10 uM): 0 to 24%
SMILES: NCc1ccc2c(c1F)CN(C1CCC(=O)NC1=O)C2=O (stereo not drawn) [Compound 5, 3-[5-(aminomethyl)-4-fluoro-1-oxo-2,3-dihydro-1H-isoindol-2-yl]piperidine-2,6-dione]

inhibition at 20 µM (Ikaros (IKZF1); 20 uM): 0 to 24%
SMILES: C[C@H](NC(=O)OC(C)(C)C)c1ccc2c(c1)CN(C1CCC(=O)NC1=O)C2=O (stereo partly drawn) [Compound 9, tert-butyl N-[(1S)-1-[2-(2,6-dioxopiperidin-3-yl)-1-oxo-2,3-dihydro-1H-isoindol-5-yl]ethyl]carbamate]

inhibition at 10 µM (Ikaros (IKZF1); 10 uM): 0 to 24%
SMILES: C[C@@H](N)c1ccc2c(c1)CN(C1CCC(=O)NC1=O)C2=O (stereo partly drawn) [Compound 10, 3-{5-[(1R)-1-aminoethyl]-1-oxo-2,3-dihydro-1H-isoindol-2-yl}piperidine-2,6-dione]

inhibition at 10 µM (Ikaros (IKZF1); 10 uM): 0 to 24%
SMILES: O=C1CCC(N2Cc3cc(CO)ccc3C2=O)C(=O)N1 (stereo not drawn) [Compound 17, 3-(5-(hydroxymethyl)-1-oxoisoindolin-2-yl)piperidine-2,6-dione]

inhibition at 10 µM (GSPT1): 50 to 79%
SMILES: CC(=O)OCc1ccccc1C(=O)NCc1ccc2c(c1)CN(C1CCC(=O)NC1=O)C2=O (stereo not drawn) [Compound 19, [2-({[2-(2,6-dioxopiperidin-3-yl)-1-oxo-2,3-dihydro-1H-isoindol-5-yl]methyl}carbamoyl)phenyl]methyl acetate]

inhibition at 20 µM (Ikaros (IKZF1); 20 uM): 0 to 24%
SMILES: CC(C)C(N)C(=O)NCc1ccc2c(c1)CN(C1CCC(=O)NC1=O)C2=O (stereo not drawn) [Compound 32, 2-amino-N-((2-(2,6-dioxopiperidin-3-yl)-1-oxoisoindolin-5-yl)methyl)-3-methylbutanamide]

inhibition at 20 µM (Ikaros (IKZF1); 20 uM): 0 to 24%
SMILES: CC(C)(C)OC(=O)NC(C)(C)C(=O)NCc1ccc2c(c1)CN(C1CCC(=O)NC1=O)C2=O (stereo not drawn) [Compound 33, tert-butyl (1-(((2-(2,6-dioxopiperidin-3-yl)-1-oxoisoindolin-5-yl)methyl)amino)-2-methyl-1-oxopropan-2-yl)carbamate]

inhibition at 20 µM (Ikaros (IKZF1); 20 uM): 0 to 24%
SMILES: CC(C)(N)C(=O)NCc1ccc2c(c1)CN(C1CCC(=O)NC1=O)C2=O (stereo not drawn) [Compound 34, 2-amino-N-((2-(2,6-dioxopiperidin-3-yl)-1-oxoisoindolin-5-yl)methyl)-2-methylpropanamide]

IC50 (Hep3B cells): ≤ 100 nM | inhibition at 10 µM (GSPT1): 80 to 100% | Geomean absolute IC50 by molecule, 72 H (H929 cells): Inactive | inhibition at 10 µM (Ikaros (IKZF1); 10 uM): 0 to 24%
SMILES: CC1c2cc(CN)ccc2C(=O)N1C1CCC(=O)NC1=O (stereo not drawn) [Compound 52, 3-[5-(aminomethyl)-3-methyl-1-oxo-2,3-dihydro-1H-isoindol-2-yl]piperidine-2,6-dione]

inhibition at 10 µM (GSPT1): 80 to 100% | inhibition at 10 µM (Ikaros (IKZF1); 10 uM): 0 to 24%
SMILES: O=C1CCC(N2Cc3cc(C(=O)O)c(F)cc3C2=O)C(=O)N1 (stereo not drawn) [Compound 54, 2-(2,6-dioxopiperidin-3-yl)-6-fluoro-1-oxo-2,3-dihydro-1H-isoindole-5-carboxylic acid]
